Legend:
[1] = in vitro; conditions: human, Caco-2, permeability
[2] = in vivo; conditions: rat, plasma, po, 5 mg/kg
[3] = in vivo; conditions: mouse, plasma, po, 10 mg/kg
[4] = in vivo; conditions: dog, plasma, po, 0.5 mg/kg
[5] = in vivo; conditions: cynomolgus monkey, plasma, po, 0.5 mg/kg
[6] = physchem; conditions: octanol/water, pH 6.5

| Papp [1] [×10⁻⁶ cm/s] | AUC [2] [ng·h/mL] | AUC [3] [ng·h/mL] | AUC [4] [ng·h/mL] | AUC [5] [ng·h/mL] | logD [6] | SMILES |
| --- | --- | --- | --- | --- | --- | --- |
| 24.5 | – | – | – | – | – | O=c1n(Cc2nc3ccccc3n2CCCCF)c2cnccc2n1CC(F)(F)F |
| 21.4 | – | – | – | – | – | CC(C)(C)n1c(=O)n(Cc2nc3ccccc3n2CCCC#N)c2cnccc21 |
| 3.6 | 40 | 1430 | 307 | 185 | – | CS(=O)(=O)CCCn1c(Cn2c(=O)n(CC(F)(F)F)c3ccncc32)nc2ccccc21 |
| – | 133 | 2000 | 438 | 118 | – | CCS(=O)(=O)CCCn1c(Cn2c(=O)n(CC(F)(F)F)c3ccncc32)nc2ccccc21 |
| – | 973 | 600 | 755 | 270 | 2.1 | N#CCCCn1c(Cn2c(=O)n(C3CC3)c3ccncc32)nc2ccccc21 |
| 19.7 | – | – | – | – | – | N#CCCCn1c(Cn2c(=O)n(CC(F)(F)F)c3ccncc32)nc2ccccc21 |
| 16.9 | – | – | – | – | – | CC(C)n1c(=O)n(Cc2nc3ccccc3n2CCCC#N)c2cnccc21 |

— ChEMBL document CHEMBL1146342, “Respiratory syncytial virus fusion inhibitors. Part 4: optimization for oral bioavailability” (Bioorg Med Chem Lett, 2007)
